In ChEMBL document CHEMBL1132807, “Synthesis of a heterocyclic aza-enediyne and its DNA-cleavage properties” (Bioorg Med Chem Lett, 2000):

Assay: Concentration required for cleaving the supercoiled DNA at pH 8
Format: functional

## C[n+]1c(C#Cc2ccccc2)n(CC#Cc2ccccc2)c2ccccc21
  Concentration: 100 µM
